PubChem BioAssay (NCI)
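The compound was tested at five concentrations on cells cultured in 96-well plates, with a 48-hour exposure period. GI50: concentration for 50% inhibition of growth. Definition used: TGI = concentration required for complete inhibition of growth.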

Key:
Test in all cases: NCI tumour cell line growth inhibition, 48 h
[1] = test system: CAKI-1 renal
[2] = test system: RPMI-8226 leukemia
[3] = test system: U251 CNS
[4] = test system: HS 578T breast
[5] = test system: SK-MEL-5 melanoma
[6] = test system: IGROV1 ovarian
[7] = test system: KM12 colon
[8] = test system: OVCAR-8 ovarian
[9] = test system: OVCAR-4 ovarian
[10] = test system: T-47D breast

SMILES	GI50 [1]	TGI [1]	GI50 [2]	TGI [2]	GI50 [3]	TGI [3]	GI50 [4]	TGI [4]	GI50 [5]	TGI [5]	GI50 [6]	TGI [6]	GI50 [7]	TGI [7]	GI50 [8]	TGI [8]	GI50 [9]	TGI [9]	TGI [10]
CC(C)N(Cc1ccc(CN(C(=O)CCl)C(C)C)cc1)C(=O)CCl	1.77 µM	3.39 µM	2.06 µM	5.13 µM	1.77 µM	3.32 µM	2.75 µM	16.8 µM	0.451 µM	1.81 µM	0.629 µM	2.55 µM	1.75 µM	3.54 µM	2.08 µM	6.43 µM	1.38 µM	3.63 µM	
COc1ccc2oc3c(OC)c(OC)c(OC)cc3c(=O)c2c1		> 100 µM		> 100 µM		> 100 µM				> 100 µM		> 100 µM				> 100 µM		> 100 µM	
CCOC(=O)c1cc(-c2ccc(-c3cc(C(=O)OCC)c(C#N)c(N)c3C#N)cc2)c(C#N)c(N)c1C#N		> 100 µM		> 100 µM		> 100 µM						> 100 µM		> 100 µM		> 100 µM		> 100 µM	
Cc1ccc(N=C[N-]c2ccc(C)cc2)cc1.Cc1ccc(N=C[N-]c2ccc(C)cc2)cc1.O=C([O-])C(F)(F)F.O=C([O-])C(F)(F)F.[OH3+].[OH3+].[Rh+2].[Rh+2]	> 100 µM	> 100 µM	18.9 µM	40.6 µM	25.8 µM	72.3 µM			30.7 µM	> 100 µM	26.6 µM	72.2 µM	35 µM	> 100 µM	35.1 µM	> 100 µM	44.6 µM	> 100 µM	
C#CC1=CC(=O)C(OC)=CC1=O		42.6 µM		49.6 µM		> 100 µM		> 100 µM		40 µM				> 100 µM					87.5 µM
COCCOc1cc(C)cc(/C=C(C)/C=C/C2=C(C)CCCC2(C)C)n1		> 100 µM		52.3 µM		> 100 µM				39.8 µM		> 100 µM		> 100 µM		> 100 µM		> 100 µM	
NC1c2ccccc2Nc2ccccc21		17.4 µM		19.6 µM						17.1 µM		21.7 µM		17 µM		17.1 µM			
O=C(C(=O)n1ncc(Cl)c(Cl)c1=O)n1ncc(Cl)c(Cl)c1=O		44 µM		26.8 µM		> 100 µM				97.2 µM		> 77.3 µM		> 100 µM		> 59.9 µM		36.1 µM	
CCCCCC(=O)Nc1nc2nc[nH]c2c(=O)[nH]1		> 100 µM		> 100 µM		> 100 µM				> 100 µM		> 100 µM		> 100 µM		> 100 µM		> 100 µM	
Cc1cccc(C(=O)O)c1C(=O)c1cccc2ccccc12		> 100 µM				> 100 µM				> 100 µM		> 100 µM		> 100 µM		> 100 µM		> 100 µM	
CC1=C(SC#N)S(=O)(=O)N(c2ccccc2)C(C)=C1SC#N		> 100 µM		> 100 µM		35.4 µM				> 100 µM		> 100 µM		> 100 µM		> 100 µM		> 100 µM	
